Data taken from patent US20080279868A1, “Antibody-Drug Conjugates and Methods of Use” (priority 2005, published 2008).

Experiment: Rate of cyclization of 6-membered hydrazine linker in buffer
Assay type: physicochemical
Settings: for rate of cyclization of the hydrazine linker: buffer at pH 7.4
Experimental: A duocarmycin analog conjugated to a dimethyl 6-membered hydrazine linker was incubated in buffer at pH 7.4 for 24 hours and the generation of cyclized product resulting from cyclization of the hydrazine linker, thereby releasing free duocarmycin analog, was assessed over time.
A duocarmycin analog conjugated to a gem-dimethyl 6-membered hydrazine linker was incubated in buffer at pH 7.4 and the generation of cyclized product resulting from cyclization of the hydrazine linker, thereby releasing free duocarmycin analog, was assessed over time.

SMILES	rate of cyclization of the hydrazine linker	generation of cyclized product resulting from cyclization of the hydrazine linker (buffer at pH 7.4, over 24 hours)
COC(=O)c1c(C)[nH]c2c(OC(=O)N(C)CC(=O)N(C)N)cc3c(c12)[C@H](CCl)CN3C(=O)c1cc2cc(OC)ccc2o1	relatively slow rate of cyclization	Minimal amounts of cyclized product
COC(=O)c1c(C)[nH]c2c(OC(=O)N(C)C(C)(C)C(=O)N(C)N)cc3c(c12)[C@H](CCl)CN3C(=O)c1cc2cc(OC)ccc2o1	proceeding to completion within a few minutes	–
